Data published in paper PMC3754872 (The Journal of Experimental Medicine, 2013).

Key:
[1] = biological target: T1, CXCR2 (Mus musculus, UniProt P35343); assay: displacement of […]-IL-8 from CXCR2-expressing L1.[…] cells; type: binding
T1 sequence (P35343 1-359): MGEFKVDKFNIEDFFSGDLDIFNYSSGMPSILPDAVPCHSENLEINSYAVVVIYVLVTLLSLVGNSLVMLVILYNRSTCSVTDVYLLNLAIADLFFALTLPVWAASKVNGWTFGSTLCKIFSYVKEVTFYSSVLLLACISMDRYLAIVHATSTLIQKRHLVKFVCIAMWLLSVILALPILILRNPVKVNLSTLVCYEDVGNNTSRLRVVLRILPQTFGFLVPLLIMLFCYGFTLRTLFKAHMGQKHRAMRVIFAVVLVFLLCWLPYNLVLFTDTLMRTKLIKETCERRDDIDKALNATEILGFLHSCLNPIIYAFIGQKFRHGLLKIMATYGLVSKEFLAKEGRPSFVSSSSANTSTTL

[2] = biological target: T1, CXCR2; assay: inhibition of agonist-stimulated; type: biochemical

Structure (SMILES) | EC50 [1] [µM] | IC50 [2] [µM]
CC(C)CCC(O)[C@@H](C)[C@H]1CC[C@H]2[C@@H]3CC=C4C[C@@H](O)CC[C@]4(C)[C@H]3CC[C@]12C (stereo partly drawn) [22R-HC] | 1.32 ± 0.25 | –
O=C(Nc1ccc([N+](=O)[O-])cc1O)Nc1ccccc1Br [SB225002] | – | 0.0166 ± 0.00364
